{"source": "patent EP0741709B1", "about": "“AROMATIC 2-AMINO-IMIDAZOLE DERIVATIVES AS ALPHA-2A ADRENOCEPTOR AGONISTS” (Allergan Sales, Inc., priority 1994, dated 1995)"}
{"target": "T1, human α2A (Homo sapiens, UniProt P08913)", "T1 construct": "expressed in transfected cells; host or cells: CHO (CHO-C10)", "T1 sequence (P08913 1-465)": "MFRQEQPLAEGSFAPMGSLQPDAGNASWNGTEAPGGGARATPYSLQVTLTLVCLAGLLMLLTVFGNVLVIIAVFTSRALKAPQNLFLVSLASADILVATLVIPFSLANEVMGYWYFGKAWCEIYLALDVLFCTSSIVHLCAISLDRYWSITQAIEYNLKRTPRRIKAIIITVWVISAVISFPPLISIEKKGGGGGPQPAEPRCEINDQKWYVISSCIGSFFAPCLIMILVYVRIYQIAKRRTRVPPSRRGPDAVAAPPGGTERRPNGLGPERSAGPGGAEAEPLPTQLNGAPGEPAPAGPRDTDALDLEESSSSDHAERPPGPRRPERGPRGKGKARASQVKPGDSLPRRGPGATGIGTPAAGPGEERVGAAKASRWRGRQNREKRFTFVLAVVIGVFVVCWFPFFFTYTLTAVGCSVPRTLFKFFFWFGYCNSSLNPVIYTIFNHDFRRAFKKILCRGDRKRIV", "assay": "Receptor binding assay, [3H]rauwolscine, CHO-C10 cell membranes", "settings": "22°C, 30 minutes", "experimental": "Cell preparation: […] Cells were harvested by scraping and placed into cold buffer of the following composition: 50 mM Tris-HCl, 5 mM EDTA, pH 7.4). Cells were then homogenized with a Polytron homogenizer for 2 X 10 sec at setting #7, and centrifuged for 20 minutes at 49,000 x g. The pellet fraction was washed (resuspended in Tris-HCl, pH 8 buffer and centrifuged for 15-20 minutes at 49,000 x g) 2 times and stored at -100°C until binding assay. Binding Studies: […] Frozen membrane pellet was resuspended in 25 mM glycine/glycine, pH 7.5 and incubated with radioligand under the following conditions: […] RKC-[^3H]rauwolscine, 0°C, 120 minutes; and, HCC-[^3H]prazosin, 22°C, 30 minutes in a final volume of 500 ul. At the end of the incubation period, the samples were filtered through glass filters (Whatman GF/B) in a 96 well cell harvester and rapidly washed four times with 4 mL of iced-cold 50 mM Tris-HCl buffer. The filters were then oven dried and transferred to scintillation vials containing 10 mL of Beckman's Ready Protein® scintillation cocktail for counting. […] Protein concentrations were determined with a protein assay kit from Bio Rad. Binding isotherms, equilibrium dissociation and affinity constants were analyzed and determined by the non-linear least squares curve fitting programs EBDA (BioSoft) or AccuFit Competition/Saturation by Beckman. Cell preparation: […] Cells were harvested by scraping and placed into cold buffer of the following composition: 50 mM Tris-HCl, 5 mM EDTA, pH 7.4). Cells were then homogenized with a Polytron homogenizer for 2 X 10 sec at setting #7, and centrifuged for 20 minutes at 49,000 x g. The pellet fraction was washed (resuspended in Tris-HCl, pH 8 buffer and centrifuged for 15-20 minutes at 49,000 x g) 2 times and stored at -100°C until binding assay. […] Frozen membrane pellet was resuspended in 25 mM glycine/glycine, pH 7.4 and incubated with radioligand under the following conditions: […] At the end of the incubation period, the samples were filtered through glass fiber filters (Whatman GF/B) in a 96 well cell harvester and rapidly washed four times with 4 mL of iced-cold 50 mM Tris-CHl buffer. The filters were then oven dried and transferred to scintillation vials containing 5 mL of Beckman's Ready Protein® scintillation cocktail for counting. […] Protein concentrations were determined with a protein assay kit from Bio Rad. Binding isotherms, equilibrium dissociation and affinity constants were analyzed and determined by the non-linear least squares curve fitting programs AccuFit Competition/Saturation by Beckman.", "units": {"Ki": "nM"}}
{"smiles": "Cc1ccccc1Nc1ncc[nH]1", "Ki": 73}
{"smiles": "c1ccc(Nc2ncc[nH]2)cc1", "Ki": 394}
{"smiles": "Brc1c(Nc2ncc[nH]2)ccc2nccnc12", "Ki": 512}
{"smiles": "COc1ccc(Nc2ncc[nH]2)c(C)c1", "Ki": 10}
{"smiles": "Brc1ccccc1Nc1ncc[nH]1", "Ki": 214}
{"smiles": "Clc1cccc(Cl)c1Nc1ncc[nH]1", "Ki": 95}
{"smiles": "Cc1c(Nc2ncc[nH]2)ccc2c1OCCO2", "Ki": 1.7}
{"smiles": "Clc1ccccc1Nc1ncc[nH]1", "Ki": 287}
{"smiles": "c1cc2c(c(Nc3ncc[nH]3)c1)CCCC2", "Ki": 39}
{"smiles": "Cc1c(Nc2ncc[nH]2)ccc2nccnc12", "Ki": 31}
{"smiles": "Cc1c(Nc2ncc[nH]2)ccc2c1NCCO2", "Ki": 6.3}
